# According to patent US20250090482A1, “COMPOSITIONS AND METHODS FOR THE TREATMENT OF DEPRESSION” (Janssen Pharmaceuticals, Inc., priority 2022, published 2025):
# Values joined by “and” are separate entries in the source; they are usually repeats but may differ in a detail not shown here. Equal values may be shown once.
# What was measured:
# [1] = tested on: TRD patients, 3MM biomarker signature positive or negative; assay: 3MM biomarker signature analysis of MADRS treatment effect across esketamine TRD trials; type: in vivo, human; conditions: for treatment effect, improvement over placebo: end of double blind treatment
# Protocol: (§1) Samples of venous blood were obtained from patients and healthy control subjects from subject described in Example 1 and from the other clinical trials referenced herein. Serum or plasma was prepared from the samples of venous blood. Measurements of human CRP and IL-6-R were performed in serum using an MSD Sector 6000 with the kits #K151STD and K151ALC (MesoScale Discovery, Rockville, MD). Human TNFα was quantified in serum using a Simoa HD-1 analyzer with kit #143 (Quanterix, Lexington, MA). All measures were performed according to kit manufacturer's recommendations.
# (§2) As used in the following biomarker assay analysis, treatment (TRT) refers to treatment with intranasal esketamine plus optionally an oral antidepressant and placebo (PBO) refers to treatment with a placebo plus optionally an oral antidepressant.
# (§3) The following biomarker signatures were employed: • 3MM: Inflammatory biomarker signature with positive status defined by CRP>3 mg/L and (TNFα>[…] or sIL6R>25 ng/mL). • 2MM: Inflammatory biomarker signature with positive status defined by CRP>3 mg/L and sIL6R>25 ng/mL. • CRP: Inflammatory biomarker signature with positive status defined by CRP>3 mg/L/
# (§4) The 3MM signature was tested in clinical trials for adjunctive MDD, including treatment-resistant MDD (TRD) and MDD with suicidal ideation (SUI). […] Significant was driven by Esketamine (ESK) TRD trials.
# [2] = tested on: MDD with suicidal ideation (SUI); assay: 3MM biomarker signature analysis in esketamine trials with suicidal ideation (SUI); type: in vivo, human
# Protocol: as §1, §2, §3, §4
compound,measurement,setting,value
"CN[C@]1(c2ccccc2Cl)CCCCC1=O [esketamine, (S)-2-(2-chlorophenyl)-2-(methylamino)cyclohexanone]","treatment effect, improvement over placebo",[1]; 3MM biomarker signature negative subjects,2 MADRS points and 2.0 MADRS points
same,"treatment effect, improvement over placebo",[1]; 3MM biomarker signature positive subjects,7.8 MADRS points
same,difference between subtypes (Signature advantage),[1]; 3MM positive minus negative,5.8 point
same,prediction of treatment effect by 3MM status at baseline,[2],did not predict treatment effect
